Measurements reported in the supplement of paper PMC12463676, “Small-molecule dissolution of stress granules by redox modulation benefits ALS models” (Nature Chemical Biology, 2025).

Experiments:
potassium arsenate = compound: O=[As]([O-])(O)O.[K+] [potassium arsenate]; assay: thermal stability z-score vs DMSO; higher = more thermally stabilized by treatment; conditions: HeLa; arsenate concentration 1 mM
Protocol: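 Cellular thermal proteome profiling in HeLa cells treated with 1 mM arsenate for 1 h (DMSO pretreatment), heated to ten temperatures (37-66.3 °C). Soluble protein was quantified by TMT mass spectrometry relative to DMSO controls; the thermal stability score was transformed to a z-score; mean of n = 3 experiments.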

lipoamide = compound: NC(=O)CCCCC1CCSS1 [lipoamide]; assay: as above; conditions: HeLa, lipoamide concentration 100 µM
Protocol: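 Cellular thermal proteome profiling in HeLa cells. Cells were treated with 100 µM lipoamide for 1 h, with or without 1 mM arsenate for a further 1 h, then heated to ten temperatures (37-66.3 °C), and soluble protein was quantified by TMT mass spectrometry relative to 0.1% DMSO controls. The thermal stability score (sum of log2 fold changes minus the abundance score) was transformed to a z-score; mean of n = 3 experiments.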

[1] = arsenate co-treatment: 1 mM arsenate 1 h
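Note: each temperature applied for 3 min, abundance score taken as mean log2 fold change at the two lowest temperatures, z-score obtained by mean subtraction and division by SD.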

Row | Target | thermal stability z-score (potassium arsenate) | thermal stability z-score (lipoamide; [1]) | thermal stability z-score (lipoamide; arsenate co-treatment: none)
1 | MRPL23 (UniProt Q16540) | 0.525 | 0.205 | 0.755
2 | MRPL24 (UniProt Q96A35) | -0.261 | -0.411 | -0.311
3 | MRPL27 (UniProt Q9P0M9) | -0.0764 | -0.0242 | 0.00566
4 | MRPL28 (UniProt Q13084) | -0.154 | -0.527 | -0.172
5 | MRPL30 (UniProt Q8TCC3) | 0.112 | -0.325 | 0.266
6 | MRPL32 (UniProt Q9BYC8) | -0.401 | -0.0526 | 0.482
7 | MRPL33 (UniProt O75394) | -0.812 | -0.539 | -0.723
8 | MRPL35 (UniProt Q9NZE8) | 0.129 | -0.257 | -0.048
9 | MRPL37 (UniProt Q9BZE1) | -0.0807 | -0.398 | -0.403
10 | MRPL38 (UniProt Q96DV4) | 0.134 | -0.319 | -0.0312
11 | MRPL39 (UniProt Q9NYK5) | 0.057 | -0.499 | -0.225
12 | MRPL40 (UniProt Q9NQ50) | -0.0198 | 0.157 | 0.0972
13 | MRPL41 (UniProt Q8IXM3) | 0.448 | -0.202 | 0.303
14 | MRPL42 (UniProt Q9Y6G3) | -1.61 | -1.07 | -0.921
15 | MRPL43 (UniProt Q8N983) | 0.166 | -0.191 | 0.245
16 | MRPL44 (UniProt Q9H9J2) | -0.354 | -0.467 | -0.447
17 | MRPL45 (UniProt Q9BRJ2) | 0.214 | -0.181 | 0.0671
18 | MRPL46 (UniProt Q9H2W6) | -0.0514 | -0.218 | 0.1

Row | Target | thermal stability z-score (potassium arsenate) | thermal stability z-score (lipoamide; [1]) | thermal stability z-score (lipoamide; arsenate co-treatment: none)
19 | MRPL47 (UniProt Q9HD33) | 0.268 | -0.428 | -0.0176
20 | MRPL48 (UniProt Q96GC5) | 0.101 | -0.0867 | 0.198
21 | MRPL49 (UniProt Q13405) | -0.254 | -0.298 | 0.49
22 | MRPL50 (UniProt Q8N5N7) | 1.42 | 1.2 | 0.662
23 | MRPL51 (UniProt Q4U2R6) | -0.0101 | -0.114 | 0.334
24 | MRPL53 (UniProt Q96EL3) | 0.0397 | 0.75 | -0.432
25 | MRPL54 (UniProt Q6P161) | 0.025 | -0.648 | 0.074
26 | MRPL55 (UniProt Q7Z7F7) | -0.38 | 0.0563 | 0.0521
27 | MRPL57 (UniProt Q9BQC6) | 0.671 | 0.281 | 0.104
28 | MRPS2 (UniProt Q9Y399) | 0.591 | 0.15 | 0.188
29 | MRPS5 (UniProt P82675) | 0.0198 | -0.158 | 0.0282
30 | MRPS6 (UniProt P82932) | -0.516 | -0.216 | -0.13
31 | MRPS7 (UniProt Q9Y2R9) | 0.102 | -1.12 | -0.496
32 | MRPS9 (UniProt P82933) | 0.195 | 0.316 | 0.203
33 | MRPS10 (UniProt P82664) | -0.309 | -0.41 | -0.358
34 | MRPS11 (UniProt P82912) | 0.34 | 0.302 | -0.354
35 | MRPS12 (UniProt O15235) | 0.233 | -0.367 | 0.0698
36 | MRPS14 (UniProt O60783) | -0.644 | -0.722 | -0.574
